Experimental data from PubChem BioAssay (NCI).
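The compound was tested at five concentrations on cells cultured in 96-well plates, with a 48-hour exposure period. GI50 is the concentration that inhibits growth by half. TGI: concentration producing complete growth inhibition.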

Experiments:
Test in all cases: growth of human tumour cells (NCI), 48 h
HCT-15 colon = test system: HCT-15 colon
U251 CNS = test system: U251 CNS
HCT-116 colon = test system: HCT-116 colon
SK-MEL-2 melanoma = test system: SK-MEL-2 melanoma
NCI-H226 lung = test system: NCI-H226 lung
HOP-92 NSCLC = test system: HOP-92 NSCLC
SW-620 colon = test system: SW-620 colon
UACC-257 melanoma = test system: UACC-257 melanoma
HL-60(TB) leukemia = test system: HL-60(TB) leukemia
SR leukemia = test system: SR leukemia

SMILES: CC1=C(C(=O)NNC(=O)CC#N)CC(C(=O)NNC(=O)CC#N)=C(C)N1
- TGI (HCT-15 colon): > 100 µM
- TGI (U251 CNS): > 100 µM
- TGI (HCT-116 colon): > 100 µM
- TGI (SK-MEL-2 melanoma): > 100 µM
- TGI (NCI-H226 lung): > 100 µM
- TGI (HOP-92 NSCLC): > 100 µM
- TGI (SW-620 colon): > 100 µM
- TGI (UACC-257 melanoma): > 100 µM
- TGI (HL-60(TB) leukemia): > 100 µM

SMILES: NC(=O)NC(=NCc1ccccc1)NCc1ccccc1
- TGI (HCT-15 colon): > 100 µM
- TGI (U251 CNS): > 100 µM
- TGI (HCT-116 colon): > 100 µM
- TGI (SK-MEL-2 melanoma): > 100 µM
- TGI (HOP-92 NSCLC): > 100 µM
- TGI (SW-620 colon): > 100 µM
- TGI (UACC-257 melanoma): > 100 µM

SMILES: COc1cc(-c2c3c(cc4c2OCO4)[C@@H](Nc2ccc4c(c2)Cc2cc(N[C@@H]5c6cc7c(cc6C(c6cc(OC)c(O)c(OC)c6)[C@H]6C(=O)OC[C@H]56)OCO7)ccc2-4)[C@H]2COC(=O)[C@@H]2C3)cc(OC)c1O (stereo not given in full)
- TGI (SR leukemia): 56.5 µM
- TGI (HCT-15 colon): > 100 µM
- TGI (U251 CNS): 89 µM
- TGI (HCT-116 colon): 57 µM
- TGI (NCI-H226 lung): > 100 µM
- TGI (HOP-92 NSCLC): 97.3 µM
- TGI (SW-620 colon): > 100 µM
- TGI (UACC-257 melanoma): > 100 µM
- TGI (HL-60(TB) leukemia): > 100 µM

SMILES: CC1=CCC[C@H]2[C@](C)(CC3=CC(=O)C4SCCSC4C3=O)[C@@H](C)CC[C@]12C (stereo not given in full)
- TGI (SR leukemia): 53.6 µM
- TGI (HCT-15 colon): 67.1 µM
- TGI (U251 CNS): 34.5 µM
- TGI (HCT-116 colon): 31 µM
- TGI (SK-MEL-2 melanoma): 23.2 µM
- TGI (NCI-H226 lung): 30.3 µM
- TGI (HOP-92 NSCLC): 70.4 µM
- TGI (SW-620 colon): 65.6 µM
- TGI (UACC-257 melanoma): 64 µM

SMILES: C[C@@H]1C(=O)CC2(O)[C@@]13C[C@@H](OC(=O)[C@@H]3O)[C@@H](C)[C@@]21COC1=O (stereo not given in full)
- TGI (SR leukemia): > 100 µM
- TGI (HCT-15 colon): > 100 µM
- TGI (U251 CNS): > 100 µM
- TGI (HCT-116 colon): > 100 µM
- TGI (SK-MEL-2 melanoma): > 100 µM
- TGI (NCI-H226 lung): > 100 µM
- TGI (SW-620 colon): > 100 µM
- TGI (UACC-257 melanoma): > 100 µM
- TGI (HL-60(TB) leukemia): > 100 µM

SMILES: COc1cc(OC)c(C2c3cc4c(cc3OC(N3CCOCC3)C2C)OCO4)c(OC)c1 (stereo not given)
- TGI (SR leukemia): > 100 µM
- TGI (HCT-15 colon): > 100 µM
- TGI (HCT-116 colon): > 100 µM
- TGI (SK-MEL-2 melanoma): > 100 µM
- TGI (SW-620 colon): > 100 µM
- TGI (UACC-257 melanoma): > 100 µM

SMILES: CCN(CC)C(=S)SS(=O)(=O)c1ccc(C)cc1
- TGI (HCT-15 colon): > 100 µM
- TGI (U251 CNS): 69.6 µM
- TGI (SK-MEL-2 melanoma): > 100 µM
- TGI (NCI-H226 lung): > 100 µM
- TGI (SW-620 colon): 45.2 µM
- TGI (UACC-257 melanoma): 46.3 µM

SMILES: COc1cc2c3c(n(C)c(=O)c2cc1OC)-c1cc2c(cc1/C3=C/CCCCBr)OCO2
- TGI (SR leukemia): 15.6 µM
- TGI (HCT-15 colon): > 100 µM
- TGI (U251 CNS): > 100 µM
- GI50 (HCT-116 colon): 9.47 µM
- TGI (HCT-116 colon): > 100 µM
- TGI (SK-MEL-2 melanoma): > 100 µM
- TGI (HOP-92 NSCLC): > 100 µM
- TGI (SW-620 colon): > 100 µM
- TGI (UACC-257 melanoma): > 100 µM
- TGI (HL-60(TB) leukemia): > 100 µM

SMILES: Cc1cccc(NC(Nc2cccc(C)c2)=C(C(Cl)=C(Cl)Cl)[N+](=O)[O-])c1
- TGI (SR leukemia): 42.8 µM
- TGI (HCT-15 colon): 33.1 µM
- TGI (U251 CNS): 36.3 µM
- TGI (HCT-116 colon): > 46.4 µM
- TGI (SK-MEL-2 melanoma): 48.5 µM
- TGI (NCI-H226 lung): 22.5 µM
- TGI (SW-620 colon): 34.2 µM
- TGI (UACC-257 melanoma): > 53.4 µM

SMILES: COC(=O)C(CCCCNC(=O)CNC(=O)OCc1ccccc1)NC(=O)C(CCCCNC(=O)CNC(=O)OCc1ccccc1)NC(=O)OCc1ccccc1 (stereo not given)
- TGI (SR leukemia): > 100 µM
- TGI (HCT-15 colon): > 100 µM
- TGI (U251 CNS): > 100 µM
- TGI (HCT-116 colon): > 100 µM
- TGI (SK-MEL-2 melanoma): 54.2 µM
- TGI (NCI-H226 lung): > 100 µM
- TGI (SW-620 colon): > 100 µM
- TGI (UACC-257 melanoma): > 100 µM
- TGI (HL-60(TB) leukemia): > 100 µM

SMILES: COC(=O)C1=C(C(=O)OC)C2(C)CCC(=O)C1O2 (stereo not given)
- TGI (SR leukemia): > 10 µM
- TGI (HCT-15 colon): > 10 µM
- TGI (U251 CNS): > 10 µM
- TGI (HCT-116 colon): > 10 µM
- TGI (SK-MEL-2 melanoma): > 10 µM
- TGI (NCI-H226 lung): > 10 µM
- TGI (SW-620 colon): > 10 µM
- TGI (UACC-257 melanoma): > 10 µM
- TGI (HL-60(TB) leukemia): > 10 µM

SMILES: CN(C)c1nc(=NCc2ccccn2)ss1
- TGI (SR leukemia): 4.75 µM
- TGI (HCT-15 colon): > 10 µM
- TGI (U251 CNS): > 10 µM
- TGI (HCT-116 colon): > 10 µM
- TGI (NCI-H226 lung): > 10 µM
- TGI (HOP-92 NSCLC): > 10 µM
- TGI (SW-620 colon): > 10 µM
- TGI (UACC-257 melanoma): > 10 µM
- TGI (HL-60(TB) leukemia): 4.95 µM
